The record followed here is patent US12435087B2, “Modulators of DCN-1 and methods of use thereof” (Cellarity, Inc., priority 2023, dated 2025).

Read-outs that look alike come from different tables or passages of the source.

The assay has as its target DCN1 (DCUND1) protein PONY domain (Homo sapiens (Human), UniProt Q96GG9). Briefly: TR-FRET assay (binding to DCN-1, displacement of FAM-labeled probe). In short, it runs like this: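 Compounds read at 1, 5 and 24 h, 0.1% final DMSO, by TR-FRET between terbium-streptavidin on biotinylated DCN1 PONY domain (E. coli) and a FAM-tagged non-covalent inhibitor probe. Two setups used, 5 nM protein with 20 nM labelled probe, or 0.31 nM protein with 100 nM labelled plus 800 nM unlabelled probe; buffer had TritonX and 200 mM NaCl. % activity relative to high (with probe) and low (without probe) controls.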

Where [1] appears, read: 24 hr after treatment with compound, read-out: TR FRET IC50 24 hr.
Where [2] appears, read: TR FRET IC50 1 hr (nM), 1 hr after treatment with compound.
The mark [3] stands for this setting: read-out: TR FRET IC50 1 hr, 1 hr after treatment with compound.

DCN1 (DCUND1) protein PONY domain, sequence (Q96GG9 60-248): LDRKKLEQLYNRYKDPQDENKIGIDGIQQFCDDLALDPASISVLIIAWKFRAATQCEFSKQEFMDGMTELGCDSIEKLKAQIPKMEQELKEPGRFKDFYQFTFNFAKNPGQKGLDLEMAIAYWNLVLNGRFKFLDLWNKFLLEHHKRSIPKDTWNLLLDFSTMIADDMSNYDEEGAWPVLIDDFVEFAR

For the compound `CCN1C(=O)[C@@H](NC(=O)c2nccc(C(F)(F)F)n2)[C@H](c2cccc(C(=O)N(C)CC#N)c2)c2cnn(-c3ccccc3)c21` (racemic) [Compound I-370], the 50% inhibitory concentration (IC50) – broadly, the concentration that inhibits the measured activity by half – under setting [1] is 1000 to 3000 nM and the IC50 under setting [2] lay within 1000 to 3000 nM.
For the compound `CCN1C(=O)[C@@H](NC(=O)c2nccc(C(F)(F)F)n2)[C@H](c2cccc(NC(=O)C3=CCN(C)C3)n2)c2cnn(-c3ccccc3)c21` (racemic) [Compound I-376, rac-N-((4R,5S)-7-ethyl-4-(6-(1-methyl-2,5-dihydro-1H-pyrrole-3-carboxamido)pyridin-2-yl)-6-oxo-1-phenyl-4,5,6,7-tetrahydro-1H-pyrazolo[3,4-b]pyridin-5-yl)-4-(trifluoromethyl)pyrimidine-2-carboxamide], the IC50 was no more than 200 nM under setting [1] and 200 to 1000 nM under setting [2].
On to `C=C(CN1CCOCC1)C(=O)NCc1cccc([C@@H]2c3cnn(-c4ccccc4)c3N(CC)C(=O)[C@H]2NC(=O)c2ccn(C)n2)c1` (single isomer, unassigned) [Compound I-51], for which, under setting [3], the IC50 fell in the range of 1000 to 3000 nM.
In the case of `C=C(C(=O)NCc1cccc([C@@H]2c3cnn(-c4ccccc4)c3N(CC)C(=O)[C@H]2NC(=O)c2nccc(C(F)(F)F)n2)c1)[C@H](C)N(C)C1COC1` (single isomer, unassigned) [Compound I-382], under setting [2], the concentration for half-maximal inhibition (IC50) lay within 200 to 1000 nM.
For the compound `CCN1C(=O)C(NC(=O)c2cccc(C(F)(F)F)c2)[C@@H](c2cccc(NC(=O)C(Cl)Cl)c2)c2c(C)nn(-c3ccccc3)c21` (stereo in doubt) [Compound I-42, N-((4S,5R)-4-(3-(2,2-dichloroacetamido)phenyl)-7-ethyl-3-methyl-6-oxo-1-phenyl-4,5,6,7-tetrahydro-1H-pyrazolo[3,4-b]pyridin-5-yl)-3-(trifluoromethyl)benzamide], the IC50 is, setting by setting: under setting [1], 1000 to 3000 nM; under setting [3], greater than 3000 nM.
For the compound `C=C(CN1CCN(C2COC2)CC1)C(=O)NCc1cccc([C@@H]2c3c(C)nn(-c4ccccc4)c3N(CC)C(=O)[C@H]2NC(=O)c2cccc(C(F)(F)F)c2)c1` (stereo in doubt) [Compound I-252], the IC50 is no more than 200 nM under setting [1] and 1000 to 3000 nM under setting [2].
With `C=C(CN1CC2CC1CO2)C(=O)NCc1cccc([C@@H]2c3cnn(-c4ccccc4)c3N(CC)C(=O)[C@H]2NC(=O)c2cccc(C(F)(F)F)c2)c1` (stereo partly shown) [Compound I-7], the concentration for half-maximal inhibition (IC50) by setting is: under setting [1], no more than 200 nM; under setting [3], no more than 200 nM.
On to `C=C(CN1C2COCC1C2)C(=O)NCc1cccc([C@@H]2c3cnn(-c4ccccc4)c3N(CC)C(=O)[C@H]2NC(=O)c2cccc(C(F)(F)F)c2)c1` [Compound I-8], for which the IC50 is, setting by setting: under setting [1], no more than 200 nM; under setting [3], no more than 200 nM.
Take `C=C(CN1CCC(C)(O)C1)C(=O)NCc1cccc([C@@H]2c3cnn(-c4ccccc4)c3N(CC)C(=O)[C@H]2NC(=O)c2cccc(C(F)(F)F)c2)c1` (stereo partly drawn) [Compound I-10, N-((4R,5S)-7-ethyl-4-(3-((2-((3-hydroxy-3-methylpyrrolidin-1-yl)methyl)acrylamido)methyl)phenyl)-6-oxo-1-phenyl-4,5,6,7-tetrahydro-1H-pyrazolo[3,4-b]pyridin-5-yl)-3-(trifluoromethyl)benzamide]: the concentration for half-maximal inhibition (IC50) runs as follows: under setting [1], no more than 200 nM; under setting [3], no more than 200 nM.
For `C=C(CN1CC2(CCOC2)C1)C(=O)NCc1cccc([C@@H]2c3cnn(-c4ccccc4)c3N(CC)C(=O)[C@H]2NC(=O)c2cccc(C(F)(F)F)c2)c1` [Compound I-12], the IC50 under setting [1] is no more than 200 nM and the IC50 under setting [3] is no more than 200 nM.
With `C=C(CN1CC2CC1C2)C(=O)NCc1cccc([C@@H]2c3cnn(-c4ccccc4)c3N(CC)C(=O)[C@H]2NC(=O)c2cccc(C(F)(F)F)c2)c1` [Compound I-13], the IC50 reads like this: under setting [1], no more than 200 nM; under setting [3], no more than 200 nM.
As for `CCN1C(=O)[C@@H](NC(=O)c2cccc(C(F)(F)F)c2)[C@H](c2ccc(F)c(NC(=O)/C=C/CN(C)C)c2)c2cnn(-c3ccccc3)c21` [Compound I-32], the IC50 runs as follows: under setting [1], no more than 200 nM; under setting [2], 1000 to 3000 nM.
The like results for `CCN1C(=O)[C@@H](NC(=O)c2cccc(C(F)(F)F)c2)[C@H](c2cccc(CNC(=O)C3=CCCN(C)C3)c2)c2cnn(-c3ccccc3)c21` [Compound I-33] were, in that order, 1000 to 3000 nM and 1000 to 3000 nM.
Consider `CCN1C(=O)[C@@H](NC(=O)c2nccc(C(F)(F)F)n2)[C@H](c2cccc(NC(=O)C3=CCN(C)C3)c2)c2c(C)nn(-c3ccccc3)c21` [Compound I-37], for which the IC50 was no more than 200 nM under setting [1] and no more than 200 nM under setting [3].
In the case of `C=C(CN1CCOCC1)C(=O)NCc1cccc([C@H]2c3cnn(-c4ccccc4)c3N(CC)C(=O)[C@@H]2NC(=O)c2nccc(C(F)(F)F)n2)c1` [Compound I-43], the IC50 lay in the range of 1000 to 3000 nM under setting [1] and 1000 to 3000 nM under setting [2].
In the case of `C=C(CC(=O)OC)C(=O)NCc1cccc([C@@H]2c3cnn(-c4ccccc4)c3N(CC)C(=O)[C@H]2NC(=O)c2cccc(C(F)(F)F)c2)c1` [Compound I-50], the IC50 by setting is: under setting [1], no more than 200 nM; under setting [2], 1000 to 3000 nM.
Turning to `CCN1C(=O)[C@@H](NC(=O)c2cccc(C(F)(F)F)c2)[C@H](c2ccccc2NC(=O)CCl)c2c(C)nn(-c3ccccc3)c21` [Compound I-52, N-((4R,5S)-4-(2-(2-chloroacetamido)phenyl)-7-ethyl-3-methyl-6-oxo-1-phenyl-4,5,6,7-tetrahydro-1H-pyrazolo[3,4-b]pyridin-5-yl)-3-(trifluoromethyl)benzamide], the IC50 is, setting by setting: under setting [1], no more than 200 nM; under setting [2], 1000 to 3000 nM.
Take `CCN1C(=O)[C@@H](NC(=O)c2cccc(C(F)(F)F)c2)[C@H](c2cccc(CNC(=O)C3=CCN(C)C3)c2)c2cnn(-c3ccccc3)c21` [Compound I-54]: the IC50 runs as follows: under setting [1], no more than 200 nM; under setting [2], 1000 to 3000 nM.
The like results for `C=C(CC(=O)NCc1cccc([C@@H]2c3cnn(-c4ccccc4)c3N(CC)C(=O)[C@H]2NC(=O)c2cccc(C(F)(F)F)c2)c1)C(=O)OC` [Compound I-57] were, in that order, 1000 to 3000 nM and 1000 to 3000 nM.
Turning to `C=C(CN1CCC1)C(=O)NCc1cccc([C@H]2c3cnn(-c4ccccc4)c3N(CC)C(=O)[C@@H]2NC(=O)c2cccc(C(F)(F)F)c2)c1` [Compound I-59], the IC50 under setting [1] was no more than 200 nM and the IC50 under setting [2] fell in the range of 1000 to 3000 nM.
`C=C(CN(C)CC1COC1)C(=O)NCc1cccc([C@@H]2c3cnn(-c4ccccc4)c3N(CC)C(=O)[C@H]2NC(=O)c2cccc(C(F)(F)F)c2)c1` [Compound I-61]: the IC50 is, setting by setting: under setting [1], no more than 200 nM; under setting [3], no more than 200 nM.
In the case of `C=C(CN1CC2(CCO2)C1)C(=O)NCc1cccc([C@@H]2c3cnn(-c4ccccc4)c3N(CC)C(=O)[C@H]2NC(=O)c2cccc(C(F)(F)F)c2)c1` [Compound I-63], the IC50 was no more than 200 nM under setting [1] and no more than 200 nM under setting [3].
As for `CCN1C(=O)[C@@H](NC(=O)c2cccc(C(F)(F)F)c2)[C@H](c2cccc(NC(=O)C3=CCC3)c2)c2c(C)nn(-c3ccccc3)c21` [Compound I-70, N-((4R,5S)-4-(3-(cyclobut-1-ene-1-carboxamido)phenyl)-7-ethyl-3-methyl-6-oxo-1-phenyl-4,5,6,7-tetrahydro-1H-pyrazolo[3,4-b]pyridin-5-yl)-3-(trifluoromethyl)benzamide], the IC50 reads like this: under setting [1], 200 to 1000 nM; under setting [2], 1000 to 3000 nM.
For `CCN1C(=O)[C@@H](NC(=O)c2cccc(C(F)(F)F)c2)[C@H](c2cccc(CNC(=O)/C=C(\C)C(=O)OC)c2)c2cnn(-c3ccccc3)c21` [Compound I-73], in that order: 1000 to 3000 nM and 1000 to 3000 nM.
For `C=C(CO)C(=O)NCc1cccc([C@@H]2c3cnn(-c4ccccc4)c3N(CC)C(=O)[C@H]2NC(=O)c2cccc(C(F)(F)F)c2)c1` [Compound I-76], in that order: 1000 to 3000 nM and 1000 to 3000 nM.
The like results for `C=C(CO)C(=O)NCc1cccc([C@H]2c3cnn(-c4ccccc4)c3N(CC)C(=O)[C@@H]2NC(=O)c2cccc(C(F)(F)F)c2)c1` [Compound I-87] were, in that order, 1000 to 3000 nM and 1000 to 3000 nM.
Regarding `CCN1C(=O)[C@H](NC(=O)c2cccc(C(F)(F)F)c2)[C@@H](c2cccc(N(C)C(=O)C3=CCC3)c2)c2cnn(-c3ccccc3)c21` [Compound I-91], the IC50 was 1000 to 3000 nM under setting [1] and 1000 to 3000 nM under setting [2].
For `C=C(CN1CCOCC1)C(=O)NCc1cccc([C@H]2c3cnn(-c4ccccc4)c3N(CC)C(=O)[C@@H]2NC(=O)c2cccc(C(F)(F)F)c2)c1` [Compound I-93], the IC50 under setting [1] is 1000 to 3000 nM and the IC50 under setting [2] is 1000 to 3000 nM.
Consider `CCN1C(=O)[C@H](NC(=O)c2cccc(C(F)(F)F)c2)[C@@H](c2cccc(NC(=O)C3=CCC3)c2)c2c(C)nn(-c3ccccc3)c21` [Compound I-94, N-((4S,5R)-4-(3-(cyclobut-1-ene-1-carboxamido)phenyl)-7-ethyl-3-methyl-6-oxo-1-phenyl-4,5,6,7-tetrahydro-1H-pyrazolo[3,4-b]pyridin-5-yl)-3-(trifluoromethyl)benzamide], for which the half-maximal inhibitory concentration (IC50) runs as follows: under setting [1], 1000 to 3000 nM; under setting [3], 1000 to 3000 nM.
As for `CCN1C(=O)[C@@H](NC(=O)c2cccc(C(F)(F)F)c2)[C@H](c2cccc(CNC(=O)/C(C)=C/C(=O)OC)c2)c2cnn(-c3ccccc3)c21` [Compound I-95], the IC50 lay in the range of 1000 to 3000 nM under setting [1] and 1000 to 3000 nM under setting [2].
On to `C=C(CN1CC(F)(F)C1)C(=O)NCc1cccc([C@H]2c3cnn(-c4ccccc4)c3N(CC)C(=O)[C@@H]2NC(=O)c2cccc(C(F)(F)F)c2)c1` [Compound I-96], for which the IC50 lay within 1000 to 3000 nM under setting [1] and 1000 to 3000 nM under setting [2].
For `C=C(CN1CCC(F)(F)C1)C(=O)NCc1cccc([C@H]2c3cnn(-c4ccccc4)c3N(CC)C(=O)[C@@H]2NC(=O)c2cccc(C(F)(F)F)c2)c1` [Compound I-102], the IC50 is, setting by setting: under setting [1], 1000 to 3000 nM; under setting [2], 1000 to 3000 nM.
For `CCN1C(=O)[C@H](NC(=O)c2cccc(C(F)(F)F)c2)[C@@H](c2cccc(CNC(=O)C3=CCCN(C)C3)c2)c2cnn(-c3ccccc3)c21` [Compound I-106], the IC50 reads like this: under setting [1], 1000 to 3000 nM; under setting [2], 1000 to 3000 nM.
